{"source": "patent US10208033B2", "about": "“β-carboline, dihydro-β-carboline and tetrahydro-β-carboline alkaloid derivatives and preparation methods same and use in aspects of preventing and treating plant viruses, fungicides and insecticides” (NANKAI UNIVERSITY, priority 2013, dated 2019)", "key": {"armyworms": {"tested_on": "armyworms", "assay_type": "in vivo", "settings": "concentration 600 mg/kg"}, "[1]": {"tested_on": "tobacco mosaic virus (TMV)", "test": "Anti-TMV in vivo inactivation", "parameters": "species or system tobacco mosaic virus (host Nicotiana tabacum L.cv.Xanthi NN)"}, "Fusarium fujikuroi": {"tested_on": "Fusarium fujikuroi", "test": "Fungicidal (bactericidal) activity in vitro, PDA colony diameter", "assay_type": "cell-based", "settings": "50 mg/kg"}, "cotton bollworms": {"tested_on": "cotton bollworms", "test": "whole plant or invertebrate", "procedure": "Experimental method of cotton bollworms: feed and drug mixing method: measure 3 mL of prepared solution and add it to about 27 g of newly prepared feed, thereby obtaining needed concentration through dilution by 10 times."}, "mosquito larvae": {"tested_on": "mosquito larvae", "test": "whole plant or invertebrate", "settings": "for activity against culex pipiens larvae (in words): at 5 mg/kg", "summary_of_the_method": "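Early fourth-instar Culex pipiens pallens larvae from an indoor colony, 10 per beaker, exposed to test compound at 5 ppm in water, diluted from a 1000 ppm acetone mother solution. Blank: water containing 0.5 mL test solvent.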"}, "corn borers [2]": {"tested_on": "corn borers", "settings": "concentration 600 mg/kg"}, "Macrophoma kawatsukai": {"tested_on": "Macrophoma kawatsukai", "test": "Fungicidal (bactericidal) activity in vitro, PDA colony diameter", "assay_type": "cell-based", "settings": "50 mg/kg"}, "Fusarium graminearumt": {"tested_on": "Fusarium graminearumt", "test": "microbe, parasite or virus in culture", "assay_type": "cell-based"}, "[3]": {"tested_on": "tobacco mosaic virus (TMV)", "test": "Anti-TMV in vivo therapeutic effect", "parameters": "species or system tobacco mosaic virus (host Nicotiana tabacum L.cv.Xanthi NN)"}, "[4]": {"tested_on": "tobacco mosaic virus (TMV)", "test": "Anti-TMV in vitro effect (half-leaf soaking)", "assay_type": "cell-based, tobacco mosaic virus (host Nicotiana tabacum L.cv.Xanthi NN)"}, "Cercospora arachidicola": {"tested_on": "Cercospora arachidicola", "test": "Fungicidal (bactericidal) activity in vitro, PDA colony diameter", "assay_type": "cell-based", "settings": "50 mg/kg"}, "Alternaria solani": {"tested_on": "Alternaria solani", "test": "Fungicidal (bactericidal) activity in vitro, PDA colony diameter", "assay_type": "cell-based", "settings": "50 mg/kg"}, "potato late blight": {"tested_on": "potato late blight", "test": "microbe, parasite or virus in culture", "assay_type": "cell-based"}, "Bipolaria maydis": {"tested_on": "Bipolaria maydis", "test": "organism not typed", "assay_type": "cell-based"}, "Phytophthora capsici": {"tested_on": "Phytophthora capsici", "test": "Fungicidal (bactericidal) activity in vitro, PDA colony diameter", "assay_type": "cell-based", "settings": "50 mg/kg"}, "Rhizoctonia cereali": {"tested_on": "Rhizoctonia cereali", "test": "Fungicidal (bactericidal) activity in vitro, PDA colony diameter", "assay_type": "cell-based", "settings": "50 mg/kg"}, "[5]": {"tested_on": "Colletotrichum orbiculare", "test": "Fungicidal (bactericidal) activity in vitro, PDA colony diameter", "assay_type": "cell-based", "settings": "50 mg/kg"}, "Rhizoctonia solani": {"tested_on": "Rhizoctonia solani", "test": "Fungicidal (bactericidal) activity in vitro, PDA colony diameter", "assay_type": "cell-based", "settings": "50 mg/kg"}, "Sclerotinia scleotiorum": {"tested_on": "Sclerotinia scleotiorum", "test": "Fungicidal (bactericidal) activity in vitro, PDA colony diameter", "assay_type": "cell-based", "settings": "50 mg/kg"}, "Botrytis cinerea": {"tested_on": "Botrytis cinerea", "test": "Fungicidal (bactericidal) activity in vitro, PDA colony diameter", "assay_type": "cell-based", "settings": "50 mg/kg"}, "[6]": {"tested_on": "tobacco mosaic virus (TMV)", "test": "Anti-TMV in vivo protective effect", "parameters": "species or system tobacco mosaic virus (host Nicotiana tabacum L.cv.Xanthi NN)"}, "[7]": {"tested_on": "armyworms, cotton bollworms and corn borers", "test": "Insecticidal activity, overall statements on Table 3", "assay_type": "in vivo", "settings": "Table 3, 600 mg/kg"}, "cucumber fusarium wilt": {"tested_on": "cucumber fusarium wilt", "test": "Fungicidal (bactericidal) activity in vitro, PDA colony diameter", "assay_type": "cell-based", "settings": "50 mg/kg"}, "corn borers [8]": {"tested_on": "corn borers", "test": "whole plant or invertebrate", "settings": "read-out: Corn borer Mortality (%)"}, "[9]": {"settings": "Culex pipiens, 24 h, read-out: Mosquito larvae Mortality (%)"}}, "data": [{"smiles": "Cc1nccc2c1[nH]c1cc(OC(=O)C(C)(C)C)ccc12", "note": "[Ia-8, Tert-valerate (1-methylpyridino [3,4-b]indol-7)-ester]", "values": [{"measurement": "Armyworm Mortality (%)", "setting": "armyworms", "value": 70, "unit": "%"}, {"measurement": "Relative inhibition rate (%) In vivo inactivation", "setting": "[1]; treatment dose 100 μg/mL", "value": 0, "unit": "%"}, {"measurement": "Relative inhibition rate (%) In vivo inactivation", "setting": "[1]; treatment dose 500 μg/mL", "value": 15.3, "unit": "%"}, {"measurement": "Bactericidal activity (%) Fusarium fujikuroi", "setting": "Fusarium fujikuroi", "value": 50.0, "unit": "%"}, {"measurement": "Cotton bollworm Mortality (%)", "setting": "cotton bollworms; concentration 600 mg/kg", "value": 15, "unit": "%"}, {"measurement": "activity against culex pipiens larvae (in words)", "setting": "mosquito larvae", "value": "still show high activity"}, {"measurement": "Mosquito larvae Mortality (%)", "setting": "mosquito larvae; concentration 5 mg/kg, 24 h", "value": 60, "unit": "%"}, {"measurement": "Mosquito larvae Mortality (%)", "setting": "mosquito larvae; concentration 10 mg/kg, 24 h", "value": 100, "unit": "%"}, {"measurement": "Corn borer Mortality (%)", "setting": "corn borers [2]", "value": 65, "unit": "%"}, {"measurement": "Bactericidal activity (%) Macrophoma kawatsukai", "setting": "Macrophoma kawatsukai", "value": 76.5, "unit": "%"}, {"measurement": "Bactericidal activity (%) Fusarium graminearumt", "setting": "Fusarium graminearumt; 50 mg/kg", "value": 78.6, "unit": "%"}, {"measurement": "Relative inhibition rate (%) In vivo therapy", "setting": "[3]; treatment dose 100 μg/mL", "value": 0, "unit": "%"}, {"measurement": "Relative inhibition rate (%) In vivo therapy", "setting": "[3]; treatment dose 500 μg/mL", "value": 0, "unit": "%"}, {"measurement": "Relative inhibition rate (%) In vitro activity", "setting": "[4]; treatment dose 100 μg/mL", "value": 0, "unit": "%"}, {"measurement": "Relative inhibition rate (%) In vitro activity", "setting": "[4]; treatment dose 500 μg/mL", "value": 0, "unit": "%"}, {"measurement": "Bactericidal activity (%) Cercospora arachidicola", "setting": "Cercospora arachidicola", "value": 71.4, "unit": "%"}, {"measurement": "Bactericidal activity (%) Alternaria solani", "setting": "Alternaria solani", "value": 66.7, "unit": "%"}, {"measurement": "Bactericidal activity (%) potato late blight", "setting": "potato late blight; 50 mg/kg", "value": 50.0, "unit": "%"}, {"measurement": "Bactericidal activity (%) Bipolaria maydis", "setting": "Bipolaria maydis; 50 mg/kg", "value": 79.0, "unit": "%"}, {"measurement": "Bactericidal activity (%) Phytophthora capsici", "setting": "Phytophthora capsici", "value": 93.9, "unit": "%"}, {"measurement": "Bactericidal activity (%) Rhizoctonia cereali", "setting": "Rhizoctonia cereali", "value": 90.6, "unit": "%"}, {"measurement": "Bactericidal activity (%) Colletotrichum orbiculare", "setting": "[5]", "value": 71.4, "unit": "%"}, {"measurement": "Bactericidal activity (%) Rhizoctonia solani", "setting": "Rhizoctonia solani", "value": 42.9, "unit": "%"}, {"measurement": "Bactericidal activity (%) Sclerotinia scleotiorum", "setting": "Sclerotinia scleotiorum", "value": 80.0, "unit": "%"}, {"measurement": "Bactericidal activity (%) Botrytis cinerea", "setting": "Botrytis cinerea", "value": 54.6, "unit": "%"}, {"measurement": "Relative inhibition rate (%) In vivo protection", "setting": "[6]; treatment dose 100 μg/mL", "value": 0, "unit": "%"}, {"measurement": "Relative inhibition rate (%) In vivo protection", "setting": "[6]; treatment dose 500 μg/mL", "value": 14.4, "unit": "%"}, {"measurement": "activity against armyworms, cotton bollworms and corn borers (in words)", "setting": "[7]", "value": "broad-spectrum activity"}, {"measurement": "Bactericidal activity (%) Cucumber fusarium wilt", "setting": "cucumber fusarium wilt", "value": 52.4, "unit": "%"}]}, {"smiles": "CCCCNC(=O)[C@@H]1Cc2c([nH]c3ccccc23)[C@H](C)N1", "note": "[Ib-16, (1S, 3S)—N-butyl-1-methyl-2,3,4,9-tetrahydro-pyridino [3,4-b] indol-3-formamide]", "values": [{"measurement": "Armyworm Mortality (%)", "setting": "armyworms", "value": 65, "unit": "%"}, {"measurement": "inhibition at 100 µg/mL", "setting": "[1]; Tobacco mosaic virus, treatment dose 100 μg/mL, read-out: Relative inhibition rate (%) In vivo inactivation", "value": 13.5, "unit": "%"}, {"measurement": "inhibition at 500 µg/mL", "setting": "[1]; Tobacco mosaic virus, treatment dose 500 μg/mL, read-out: Relative inhibition rate (%) In vivo inactivation", "value": 44, "unit": "%"}, {"measurement": "inhibition of growth at 50 mg/kg", "setting": "Fusarium fujikuroi; Fusarium fujikuroi, 96 h", "value": 14.3, "unit": "%"}, {"measurement": "mortality at 600 mg/kg", "setting": "cotton bollworms; Helicoverpa armigera, in Gossypium hirsutum, read-out: Cotton bollworm Mortality (%)", "value": 50, "unit": "%"}, {"measurement": "mortality at 5 mg/kg", "setting": "mosquito larvae; [9]", "value": 60, "unit": "%"}, {"measurement": "mortality at 10 mg/kg", "setting": "mosquito larvae; [9]", "value": 100, "unit": "%"}, {"measurement": "activity against culex pipiens larvae (in words)", "setting": "mosquito larvae", "value": "still show high activity"}, {"measurement": "inhibition at 50 mg/kg", "setting": "Macrophoma kawatsukai", "value": 33.3, "unit": "%"}, {"measurement": "mortality at 600 mg/kg", "setting": "corn borers [8]", "value": 50, "unit": "%"}, {"measurement": "inhibition of growth at 50 mg/kg", "setting": "Fusarium graminearumt; Fusarium, 96 h, read-out: Bactericidal activity (%) Fusarium graminearumt", "value": 14.3, "unit": "%"}, {"measurement": "inhibition at 100 µg/mL", "setting": "[3]; Tobacco mosaic virus, treatment dose 100 μg/mL, read-out: Relative inhibition rate (%) In vivo therapy", "value": 21.1, "unit": "%"}, {"measurement": "inhibition at 500 µg/mL", "setting": "[3]; Tobacco mosaic virus, treatment dose 500 μg/mL, read-out: Relative inhibition rate (%) In vivo therapy", "value": 44.9, "unit": "%"}, {"measurement": "inhibition at 100 µg/mL", "setting": "[4]; Tobacco mosaic virus, treatment dose 100 μg/mL, read-out: Relative inhibition rate (%) In vitro activity", "value": 0, "unit": "%"}, {"measurement": "inhibition at 500 µg/mL", "setting": "[4]; Tobacco mosaic virus, treatment dose 500 μg/mL, read-out: Relative inhibition rate (%) In vitro activity", "value": 38.4, "unit": "%"}, {"measurement": "inhibition of growth at 50 mg/kg", "setting": "Cercospora arachidicola; Mycosphaerella arachidis, 96 h", "value": 84.6, "unit": "%"}, {"measurement": "inhibition of growth at 50 mg/kg", "setting": "Alternaria solani; Alternaria solani, 96 h", "value": 21.1, "unit": "%"}, {"measurement": "inhibition of growth at 50 mg/kg", "setting": "potato late blight; Phytophthora infestans, 96 h, read-out: Bactericidal activity (%) potato late blight", "value": 22.7, "unit": "%"}, {"measurement": "inhibition at 50 mg/kg", "setting": "Bipolaria maydis; read-out: Bactericidal activity (%) Bipolaria maydis", "value": 18.2, "unit": "%"}, {"measurement": "inhibition of growth at 50 mg/kg", "setting": "Phytophthora capsici; Phytophthora capsici, 96 h", "value": 18.8, "unit": "%"}, {"measurement": "inhibition of growth at 50 mg/kg", "setting": "Rhizoctonia cereali; Rhizoctonia, 96 h", "value": 57.9, "unit": "%"}, {"measurement": "inhibition of growth at 50 mg/kg", "setting": "[5]; Colletotrichum orbiculare, 96 h", "value": 28.6, "unit": "%"}, {"measurement": "inhibition of growth at 50 mg/kg", "setting": "Rhizoctonia solani; Rhizoctonia solani, 96 h", "value": 46.1, "unit": "%"}, {"measurement": "inhibition of growth at 50 mg/kg", "setting": "Sclerotinia scleotiorum; Sclerotinia, 96 h", "value": 0, "unit": "%"}, {"measurement": "inhibition of growth at 50 mg/kg", "setting": "Botrytis cinerea; Botrytis cinerea, 96 h", "value": 18.2, "unit": "%"}, {"measurement": "inhibition at 100 µg/mL", "setting": "[6]; Tobacco mosaic virus, treatment dose 100 μg/mL, read-out: Relative inhibition rate (%) In vivo protection", "value": 15.8, "unit": "%"}, {"measurement": "inhibition at 500 µg/mL", "setting": "[6]; Tobacco mosaic virus, treatment dose 500 μg/mL, read-out: Relative inhibition rate (%) In vivo protection", "value": 42.1, "unit": "%"}, {"measurement": "activity against armyworms, cotton bollworms and corn borers (in words)", "setting": "[7]", "value": "broad-spectrum activity"}, {"measurement": "inhibition of growth at 50 mg/kg", "setting": "cucumber fusarium wilt; Fusarium, 96 h", "value": 23.1, "unit": "%"}]}]}
